Measured values from article PMC7767399, “Targeted Isolation of Anti-Trypanosomal Naphthofuran-Quinone Compounds from the Mangrove Plant Avicennia lanata” (Marine Drugs, 2020).
In brackets after ≈: the same amount, converted by molar mass. Read-outs that look alike come from different tables or passages of the source.

Key:
[1] = tested on: epimastigotes of T. cruzi; design: method as in PMID 8788584; details: read-out: 50% culture growth inhibition (GI50); cited from earlier work
[2] = tested on: epimastigotes of T. cruzi; design: method as in doi:10.1016/0960-894X(95)00248-R; details: cited from earlier work
T. b. brucei = test: Anti-trypanosomal Alamar blue 96-well microplate assay; format: cell-based, Trypanosoma brucei brucei S427 (blood stream form); details: for MIC: read-out: MIC (minimum inhibitory concentration necessary to achieve 90% growth inhibition); for anti-trypanosomal activity (in words): screening of extract/fractions at 20, 10 and 5 μg/mL, pure compounds by MIC
Method: Each fraction was screened at different concentrations of 20, 10 and 5 μg/mL. The assay was performed in duplicate for each sample.
MIC assays were performed for samples having greater than 90% inhibition at a concentration of 20 μM in the initial screening campaign. The MIC values of the isolated compounds against T. b. brucei were determined by averaging the results of two independent assays. The concentrations were averaged and converted to μM.
The activity of the pure compounds was tested in vitro against the blood stream form of Trypanosomal brucei brucei (T. b. brucei) S427. The activity of the samples was determined using the well-established Alamar blue™ 96-well microplate assay, in which the screening procedure was modified from the microplate Alamar blue assay, to determine the drug sensitivity of African trypanosomes. The samples were initially screened at one concentration (20 μg/mL crude extracts or fractions, 20 μM for pure compounds) to determine their in vitro activity. Stock solutions of tested samples in DMSO (Acros Organics BVBA, Janssen Pharmaceutical, Geel, Belgium) were prepared at concentrations of 10 mg/mL (extracts) or 10 mM for pure compounds. The concentration of DMSO should not exceed 0.5% of the final test solution.

PNT2A cells = test: Cytotoxicity Alamar Blue assay on normal prostatic epithelial cells; format: cell-based, human; details: 100 μg/mL, % of DMSO control values, n = 3
Method: Meanwhile, the initial screening for cytotoxicity activity of the isolated compounds was performed on human normal prostatic epithelial cells (PNT2A) at 100 μg/mL. […] In the initial screening, if the cell viability is less than 60%, a concentration response test at 0.3 to 300 μg/mL was carried on.
The pure compounds from mangrove plant, A. lanata were tested for cytotoxicity in vitro against human normal prostatic epithelial cell line (PNT2A) derived from ECACC (Sigma-Aldrich, Dorset, UK).
The cytotoxicity activity of the pure compounds was determined using the well-established Alamar Blue™ redox-based 96-well microplate assay, in which the screening procedure was modified from. PNT2A cells were seeded into 96-well microplate assay at density of 0.5 × 10^4 cells/well in 100 μL of Dulbecco’s modified Eagle’s medium (DMEM; Invitrogen, Paisley, UK) and incubated at 37 °C, 5% CO2 with a humidified atmosphere for 24 h. […] The microplate plate was incubated at 37 °C, 5% CO2 with a humidified atmosphere for 24 h, then 10 μL of Alamar blue was added. The microplate was further incubated for another 20 h, then the fluorescence was measured using a Wallac Victor 2 microplate reader (Perkin Elmer, Cambridge, UK) (excitation: 530 nm, emission 590 nm). The results were calculated as % of the DMSO control values.

[3] = tested on: Giardia lamblia trophozoites; design: method as in doi:10.29356/jmcs.v56i2.305; details: read-out: IC50 (giardicidal activity); cited from earlier work
T. b. rhodesiense = tested on: T. b. rhodesiense; design: method as in PMID 21438586; details: T. b. rhodesiense in vitro bloodstream trypomastigotes; cited from earlier work
T. cruzi = tested on: T. cruzi; design: method as in earlier work; details: cited from earlier work
[4] = tested on: bloodstream strain of T. b. brucei; design: method as in PMID 17637068; details: cited from earlier work
[5] = different strains of T. cruzi epimastigotes, at 13–17 μM of the tested compounds
[6] = T. cruzi epimastigotes, compounds with two methoxy groups on the benzene ring
[7] = T. b. brucei, two independent assays
[8] = Trypanosoma brucei, T. b. brucei, two independent assays

Compound: CC1OC2=C(C(=O)c3ccccc3C2=O)C1(C)C (single isomer, unassigned; (-)) [(−)-2,3,3-trimethyl-2-3-dihydronaphtho [2,3-b]furan-4,9-quinone]
- GI50 [1]: 2.1 to 5.2 µM

Compound: COc1ccc2c(c1)C(=O)c1cc(C(C)O)oc1C2=O (stereo not drawn) [2-(1-hydroxyethyl)-6-methoxynaphtho[2,3-b]furan-4,9-quinone]
- growth inhibition (GI) [2, 5]: 100%

Compound: COc1ccc2c(c1OC)C(=O)c1oc(C(C)O)cc1C2=O (stereo not drawn) [2-(1-hydroxyethyl)-7,8-dimethoxynaphtho[2,3-b]furan-4,9-quinone]
- growth inhibition (GI) [2, 6]: 22%

Compound: COc1ccc2c(c1)C(=O)c1cc(C(C)=O)oc1C2=O [2-acetyl-6-methoxynaphtho[2,3-b]furan4,9-quinone]
- growth inhibition (GI) [2, 5]: 100%

Compound: COc1ccc2c(c1OC)C(=O)c1oc(C(C)=O)cc1C2=O [2-acetyl-7,8-dimethoxynaphtho[2,3-b] furan-4,9-quinone]
- growth inhibition (GI) [2, 6]: 45%

Compound: COc1ccc2c(c1OC)C(=O)c1ccoc1C2=O [5,6-dimethoxynaphtho [2,3-b]furan-4,9-quinone]
- growth inhibition (GI) [2, 6]: 45%

Compound: COc1ccc2c(c1OC)C(=O)c1occc1C2=O [7,8-dimethoxynaphtho[2,3-b]furan-4,9-quinone]
- growth inhibition (GI) [2, 6]: 25%

Compound: CC(C)(O)C1Cc2c(c(O)c3ccccc3c2O)O1 (stereo not drawn) [Compound 1, 2-(2-hydroxypropan-2-yl)-2,3-dihydronaphtho-[2,3-b] furan-4,9-diol]
- MIC (T. b. brucei; [7]): 12.50 µM (≈ 3.25 µg/mL)
- MIC (T. b. brucei; [8]): 12.5 µM (≈ 3.25 µg/mL)
- Cell viability, % of DMSO control (PNT2A cells): 86.1%

Compound: CC(C)=CCC12OC(C(C)(C)O)CC1=C(O)c1ccccc1C2=O (stereo not drawn) [Compound 2, glycosemiquinone]
- MIC (T. b. brucei; [7]): 12.50 µM (≈ 4.11 µg/mL)
- MIC (T. b. brucei; [8]): 12.5 µM (≈ 4.11 µg/mL)
- Cell viability, % of DMSO control (PNT2A cells): 86.1%

Compound: COc1c2c(c(OC)c3ccccc13)OC(C(C)(C)O)C2 (stereo not drawn) [Compound 3, avicenol C]
- MIC (T. b. brucei; [8]): 6.25 µM (≈ 1.8 µg/mL)
- Cell viability, % of DMSO control (PNT2A cells): 78.3%

Compound: CC(C)(O)c1cc2c(o1)C(=O)c1ccccc1C2=O [Compound 4, avicequinone C]
- MIC (T. b. brucei; [8]): 3.12 µM (≈ 0.8 µg/mL)
- Cell viability, % of DMSO control (PNT2A cells): 68.6%

Compound: CC(C)=CCC12OC(C(C)(C)O)CC1C(=O)c1ccccc1C2=O (stereo not drawn) [Compound 5, glycoquinone]
- MIC (T. b. brucei; [7]): 12.50 µM (≈ 4.11 µg/mL)
- MIC (T. b. brucei; [8]): 12.5 µM (≈ 4.11 µg/mL)
- Cell viability, % of DMSO control (PNT2A cells): 80.3%

Compound: CC1(C)CC[C@]2(C)CC=C3[C@]4(C)CC[C@H]5C(C)(C)C(=O)CC[C@]5(C)[C@H]4CC[C@@]3(C)[C@@H]2C1 [Compound 6, taraxerone]
- IC50 [3]: 26.7 µM
- anti-trypanosomal activity (in words) (T. b. brucei; T. b. brucei): inactive
- MIC (T. b. brucei; [8]): 154 µM (≈ 65.5 µg/mL)
- Cell viability, % of DMSO control (PNT2A cells): 88.8%

Compound: CC1(C)CC[C@]2(C)CC=C3[C@]4(C)CC[C@H]5C(C)(C)[C@@H](O)CC[C@]5(C)[C@H]4CC[C@@]3(C)[C@@H]2C1 [Compound 7, taraxerol]
- IC50 [3]: 37.8 µM
- anti-trypanosomal activity (in words) (T. b. brucei; T. b. brucei): inactive
- MIC (T. b. brucei; [8]): 145 µM (≈ 62 µg/mL)
- Cell viability, % of DMSO control (PNT2A cells): 92.8%
- IC50 (T. b. rhodesiense): < 10 µM

Compound: CC[C@H](CC[C@@H](C)[C@H]1CC[C@H]2[C@@H]3CC=C4C[C@@H](O)CC[C@]4(C)[C@H]3CC[C@]12C)C(C)C [Compound 8, β-sitosterol]
- anti-trypanosomal activity (in words) (T. b. brucei; T. b. brucei): inactive
- MIC (T. b. brucei; Trypanosoma brucei): 142 µM (≈ 59 µg/mL)
- Cell viability, % of DMSO control (PNT2A cells): 96.2%

Compound: CC[C@H](/C=C/[C@@H](C)[C@H]1CC[C@H]2[C@@H]3CC=C4C[C@@H](O)CC[C@]4(C)[C@H]3CC[C@]12C)C(C)C [Compound 9, stigmasterol]
- anti-trypanosomal activity (in words) (T. b. brucei; T. b. brucei): very low activity
- MIC (T. b. brucei; Trypanosoma brucei): 126 µM (≈ 52.2 µg/mL)
- Cell viability, % of DMSO control (PNT2A cells): 98.7%

Compound: Cc1cccc2c1C(=O)c1c(CO)coc1C2=O [maturone]
- trypanocidal activity (in words) (T. cruzi): potent trypanocidal activity

Compound: Cc1ccc(C(=O)Nc2ccc(S(=O)(=O)O)c3cc(S(=O)(=O)O)cc(S(=O)(=O)O)c23)cc1NC(=O)c1cccc(NC(=O)Nc2cccc(C(=O)Nc3cc(C(=O)Nc4ccc(S(=O)(=O)O)c5cc(S(=O)(=O)O)cc(S(=O)(=O)O)c45)ccc3C)c2)c1 [suramin, reference compound]
- MIC (T. b. brucei; Trypanosoma brucei): 0.11 µM (≈ 0.143 µg/mL)

Compound: CC(C)(C)CC(C)(C)c1ccc(OCCO)cc1 [triton X, reference compound]
- Cell viability, % of DMSO control (PNT2A cells): 0.082%

Compound: CC1(C)CC[C@]2(C)CC[C@]3(C)C(=CC[C@@H]4[C@@]5(C)CC[C@H](O)C(C)(C)[C@@H]5CC[C@]43C)[C@@H]2C1 [β-amyrin]
- IC50 [4]: 127 µM
